The source of these data is patent US20260274814A1, “THIENYL COMPOUNDS FOR THE TREATMENT OF A CENTRAL NERVOUS SYSTEM DISEASE OR DISORDER” (Coreterra Therapeutics, Inc., priority 2023, published 2026).

The assay relates to mice. Kind of assay: Neuropharmacological Assay (SmartCube): automated behavioral signature of compound-treated mice compared with a database of reference drug classes. As to conditions: for AG / AN / AX / CE / HL / MS / PS / SH / UK / AD / AP: probability that activity matches this class of agents, 3.0 mg/kg i.p., 15 min before test. In kind it is in vivo. An excerpt:
Neurosci. 2011 Sep. 9; 5: 103 (doi: 10.3389/fnins.2011.00103) (“Roberds”). As reported in Roberds, because psychiatric diseases generally result from disorders of cell-cell communication or circuitry, intact systems are useful in detecting improvement in disease-relevant endpoints. These endpoints are typically behavioral in nature, often requiring human observation and interpretation. To facilitate testing of multiple compounds for behavioral effects relevant to psychiatric disease, PsychoGenics, Inc. (Tarrytown, NY, “PGI”) developed SmartCube™ an automated system in which behaviors of compound-treated mice are captured by digital video and analyzed with computer algorithms. (D. Brunner et al. Drug Discov. Today 2002, 7:S107-S112). PGI Analytical Systems uses data from SmartCube™ to compare the behavioral signature of a test compound to a database of behavioral signatures obtained using a large set of diverse reference compounds. (The composition of the database as well as validation of the method is further described in Roberds). In this way, the neuropharmacological effects of a test compound can be predicted by similarity to major classes of compounds, such as antipsychotics, anxiolytics and antidepressants.
The SmartCube™ system produces an activity signature indicating the probability that the activity of the test compound at the administered dose matches a given class of neuropharmacological agents. (See, e.g., Roberds, FIGS. 2 and 3). The test compound is simultaneously compared against multiple classes of agents; thus, a separate probability is generated for each behavioral effect measured (e.g., anxiolytic activity, analgesic activity, etc.). In table 2 below, these probabilities are reported for each behavioral effect measured as described in Table 1 below.
Provided compounds were dissolved in a mixture of Pharmasolve™ (N-methyl-2-pyrrolidone), polyethylene glycol and propylene glycol, and were injected i.p. 15 min. before the behavioral test. For each compound, injections were administered at 3 different doses. For each behavioral effect measured, results for the 3.0 mg/kg dose are presented. The potency of many of the compounds in the table was also determined in the SmartCube™ system. Test compounds were routinely examined at dose levels of 0.3, 1, 3 and 10 mg per kg (mpk), although the dose range was increased or decreased, if necessary, to obtain a full dose response curve. A compound's minimal effective dose (MED) is a measure of the compound's potency. The MED was defined as the dose (in mpk) having 45% or more total activity in SmartCube. If only one dose was tested, that dose is shown in the MED column of Table 2 even though the dose is not known to be the MED.

The mark [1] stands for this setting: dose having 45% or more total activity in SmartCube, i.p., if only one dose was tested, that dose is shown, hydrochloride.

Structures are written as SMILES. Structures can show the parent of a compound that is named as a salt.

Consider `CNC1CCc2csc(C(F)(F)F)c2C1` (single isomer, unassigned) [Compound 62, N-methyl-3-(trifluoromethyl)-4,5,6,7-tetrahydro-2-benzothiophen-5-amine hydrochloride], for which the AG entry is listed as “ND (^ <4%)”, the AN entry is recorded as “ND (^ <4%)”, the AX entry was “ND (^ <4%)” and the CE result is on record as “ND (^ <4%)”. The HL entry is listed as “ND (^ <4%)”, the MS result is reported as “ND (^ <4%)”, the PS entry was “ND (^ <4%)” and the SH entry is “ND (^ <4%)”. Further, the UK entry is “ND (^ <4%)”. Also, under setting [1], the “MED (minimal effective dose)” value is 1 mpk. Under “hydrochloride, 3 mg/kg”, the AD result was “++++ (≥74%)” and the AP entry was “+ (≥4%)”.
Take `CNC1CCc2c(csc2C(F)(F)F)C1` (single isomer, unassigned) [Compound 63, N-methyl-1-(trifluoromethyl)-4,5,6,7-tetrahydro-2-benzothiophen-5-amine hydrochloride]: the AD entry is “+ (≥4%)”, the AG result is given as “ND (^ <4%)”, the AN result is “ND (^ <4%)” and the AP result is recorded as “ND (^ <4%)”. Besides, the CE result is recorded as “ND (^ <4%)”, the HL result was “ND (^ <4%)”, the PS result is “ND (^ <4%)” and the SH result is listed as “ND (^ <4%)”. Besides, under setting [1], the “MED (minimal effective dose)” value was 1.0 mpk. Moreover, under “hydrochloride, 3 mg/kg”, the AX result is recorded as “+++ (≥49%)”, the MS result is given as “+ (≥4%)” and the UK result is given as “ND (^ <4%)”.
In the case of `CNC1CCc2c(csc2C(F)(F)F)C1` (single isomer, unassigned) [Compound 64, N-methyl-1-(trifluoromethyl)-4,5,6,7-tetrahydro-2-benzothiophen-5-amine hydrochloride], the AD result is on record as “+ (≥4%)”, the AG result is “ND (^ <4%)”, the AN result is given as “ND (^ <4%)” and the AP entry is “ND (^ <4%)”. Further, the CE entry is “ND (^ <4%)”, the HL entry is listed as “ND (^ <4%)”, the PS entry is reported as “ND (^ <4%)” and the SH entry was “ND (^ <4%)”. In addition, the “MED (minimal effective dose)” value under setting [1] was 10 mpk. Where the note is “hydrochloride, 3 mg/kg”, the AX entry was “ND (^ <4%)”, the MS result was “ND (^ <4%)” and the UK entry is listed as “++ (≥24%)”.
Consider `Cc1csc2c1CCC(N)C2` (single isomer, unassigned) [Compound 65, 3-methyl-4,5,6,7-tetrahydrobenzothiophen-6-amine hydrochloride], for which the AG result is recorded as “ND (^ <4%)”, the AN entry is on record as “ND (^ <4%)”, the AX entry was “ND (^ <4%)” and the CE entry is listed as “ND (^ <4%)”. Further, the MS result is listed as “ND (^ <4%)”, the SH entry is on record as “ND (^ <4%)” and the UK result is reported as “ND (^ <4%)”. Also, the “MED (minimal effective dose)” value under setting [1] was 3 mpk. In addition, where the note is “hydrochloride, 3 mg/kg”, the AD result is reported as “+++ (≥49%)”, the AP entry is recorded as “ND (^ <4%)”, the HL entry is “+ (≥4%)” and the PS result was “+ (≥4%)”.
In the case of `Cc1csc2c1CCC(N)C2` (single isomer, unassigned) [Compound 66, 3-methyl-4,5,6,7-tetrahydrobenzothiophen-6-amine hydrochloride], the AG result is listed as “ND (^ <4%)”, the AN result is recorded as “ND (^ <4%)”, the AX result was “ND (^ <4%)” and the CE result is recorded as “ND (^ <4%)”. The MS entry is “ND (^ <4%)”, the SH entry is “ND (^ <4%)” and the UK result is “ND (^ <4%)”. Also, under setting [1], the “MED (minimal effective dose)” value is listed as 1 mpk. Further, where the note is “hydrochloride, 3 mg/kg”, the AD entry was “ND (^ <4%)”, the AP result was “++++ (≥74%)”, the HL result is on record as “ND (^ <4%)” and the PS entry is “ND (^ <4%)”.
As a reminder, the minimal effective dose is the lowest level tested that produced the effect sought. For the compound `Cc1sc2c(c1C)CCC(N)C2` (single isomer, unassigned) [Compound 67, 2,3-dimethyl-4,5,6,7-tetrahydrobenzothiophen-6-amine hydrochloride], the AG entry is “ND (^ <4%)”, the AN entry is given as “ND (^ <4%)”, the AP entry was “ND (^ <4%)” and the AX result is “ND (^ <4%)”. The CE result is given as “ND (^ <4%)”, the MS entry is reported as “ND (^ <4%)”, the PS entry is reported as “ND (^ <4%)” and the SH result was “ND (^ <4%)”. Further, the UK result was “ND (^ <4%)”. For the same compound, under “Mus musculus, ip, dose having 45% or more total activity in SmartCube, i.p., if only one dose was tested, that dose is shown, read-out: MED (minimal effective dose)”, the minimal effective dose was 3 mg/kg. For the same compound, for the setting “hydrochloride, 3 mg/kg”, the AD result was “+++ (≥49%)” and the HL result was “ND (^ <4%)”.
As for `Cc1sc2c(c1C)CCC(N)C2` (single isomer, unassigned) [Compound 68, 2,3-dimethyl-4,5,6,7-tetrahydrobenzothiophen-6-amine hydrochloride], the AG result is on record as “ND (^ <4%)”, the AN result is on record as “ND (^ <4%)”, the AP result is recorded as “ND (^ <4%)” and the AX result is “ND (^ <4%)”. In addition, the CE result is “ND (^ <4%)”, the MS entry was “ND (^ <4%)”, the PS result is given as “ND (^ <4%)” and the SH entry is “ND (^ <4%)”. The UK entry is on record as “ND (^ <4%)”. Moreover, where the note is “dose having 45% or more total activity in SmartCube, i.p., if only one dose was tested, that dose is shown”, the “MED (minimal effective dose)” value stood at 3 mpk. For the setting “hydrochloride, 3 mg/kg”, the AD entry is given as “++ (≥24%)” and the HL result is recorded as “+ (≥4%)”.
For the compound `CNC1CCc2scc(C)c2C1.Cl` (single isomer, unassigned) [Compound 69, N, 3-dimethyl-4,5,6,7-tetrahydrobenzothiophen-5-amine hydrochloride], the AD entry is on record as “ND (^ <4%)”, the AG result is given as “ND (^ <4%)”, the AN result was “ND (^ <4%)” and the CE entry is given as “ND (^ <4%)”. For the same compound, the HL entry was “ND (^ <4%)”, the MS result was “ND (^ <4%)”, the PS entry is “ND (^ <4%)” and the SH entry is “ND (^ <4%)”. Further, the “MED (minimal effective dose)” value under setting [1] was determined as 3 mpk. Moreover, under “hydrochloride, 3 mg/kg”, the AP result is given as “ND (^ <4%)”, the AX result was “ND (^ <4%)” and the UK entry is given as “+++ (≥49%)”.
Take `CNC1CCc2scc(C)c2C1.Cl` (single isomer, unassigned) [Compound 70, N, 3-dimethyl-4,5,6,7-tetrahydrobenzothiophen-5-amine hydrochloride]: the AD result was “ND (^ <4%)”, the AG result is “ND (^ <4%)”, the AN entry was “ND (^ <4%)” and the CE entry was “ND (^ <4%)”. The HL result was “ND (^ <4%)”, the MS result was “ND (^ <4%)”, the PS result is given as “ND (^ <4%)” and the SH result is “ND (^ <4%)”. The “MED (minimal effective dose)” value under setting [1] stood at 1 mpk. In addition, where the note is “hydrochloride, 3 mg/kg”, the AP entry is “+++ (≥49%)”, the AX entry is listed as “+ (≥4%)” and the UK entry is reported as “ND (^ <4%)”.
For `CNC1CCc2csc(F)c2C1` (single isomer, unassigned) [Compound 73, 3-fluoro-N-methyl-4,5,6,7-tetrahydro-2-benzothiophen-5-amine hydrochloride], the AG result was “ND (^ <4%)”, the AN entry is on record as “ND (^ <4%)”, the CE result is recorded as “ND (^ <4%)” and the HL entry is listed as “ND (^ <4%)”. For the same compound, the MS entry is reported as “ND (^ <4%)”, the PS result was “ND (^ <4%)”, the SH result is on record as “ND (^ <4%)” and the UK result is listed as “ND (^ <4%)”. For the same compound, the “MED (minimal effective dose)” value under setting [1] is given as 1 mpk. In addition, under “hydrochloride, 3 mg/kg”, the AD entry was “ND (^ <4%)”, the AP result is “ND (^ <4%)” and the AX entry is “++++ (≥74%)”.
